Laboratory results published in PubChem BioAssay (NCI).
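Values below derive from 48-hour exposures of cells grown in 96-well plates, with endpoints linearly interpolated between the two concentrations bracketing the appropriate inhibition level. Here, GI50 denotes the concentration required for 50% inhibition of growth. TGI denotes the concentration required for complete inhibition of growth.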

What was measured:
Assay in all cases: NCI anticancer screen, dose series, 48 h
UACC-62 melanoma = system: UACC-62 melanoma
IGROV1 ovarian = system: IGROV1 ovarian
HOP-92 NSCLC = system: HOP-92 NSCLC
NCI-H522 lung = system: NCI-H522 lung
HS 578T breast = system: HS 578T breast
UACC-257 melanoma = system: UACC-257 melanoma
BT-549 breast = system: BT-549 breast
MALME-3M melanoma = system: MALME-3M melanoma
EKVX NSCLC = system: EKVX NSCLC
SNB-75 CNS = system: SNB-75 CNS
CCRF-CEM leukemia = system: CCRF-CEM leukemia
SK-OV-3 ovarian = system: SK-OV-3 ovarian
OVCAR-5 ovarian = system: OVCAR-5 ovarian
SW-620 colon = system: SW-620 colon
SN12C renal = system: SN12C renal
KM12 colon = system: KM12 colon
MOLT-4 leukemia = system: MOLT-4 leukemia
A549 NSCLC = system: A549 NSCLC
SK-MEL-28 melanoma = system: SK-MEL-28 melanoma
COLO 205 colon = system: COLO 205 colon
RXF 393 renal = system: RXF 393 renal
UO-31 renal = system: UO-31 renal
HCC-2998 colon = system: HCC-2998 colon
HCT-116 colon = system: HCT-116 colon
NCI-H226 lung = system: NCI-H226 lung
DU-145 prostate = system: DU-145 prostate
M14 melanoma = system: M14 melanoma
MDA-MB-231 breast = system: MDA-MB-231 breast
NCI/ADR-RES ovarian = system: NCI/ADR-RES ovarian
NCI-H23 lung = system: NCI-H23 lung
LOX IMVI melanoma = system: LOX IMVI melanoma
OVCAR-3 ovarian = system: OVCAR-3 ovarian
U251 CNS = system: U251 CNS
HOP-62 NSCLC = system: HOP-62 NSCLC
OVCAR-8 ovarian = system: OVCAR-8 ovarian
OVCAR-4 ovarian = system: OVCAR-4 ovarian
T-47D breast = system: T-47D breast
ACHN renal = system: ACHN renal
SF-295 CNS = system: SF-295 CNS
TK-10 renal = system: TK-10 renal
HT29 colon = system: HT29 colon
K-562 leukemia = system: K-562 leukemia
SK-MEL-5 melanoma = system: SK-MEL-5 melanoma
786-0 renal = system: 786-0 renal
SF-268 CNS = system: SF-268 CNS
SNB-19 CNS = system: SNB-19 CNS
A498 renal = system: A498 renal
RPMI-8226 leukemia = system: RPMI-8226 leukemia
SF-539 CNS = system: SF-539 CNS
HCT-15 colon = system: HCT-15 colon
NCI-H460 lung = system: NCI-H460 lung
MDA-MB-435 = system: MDA-MB-435
SR leukemia = system: SR leukemia
HL-60(TB) leukemia = system: HL-60(TB) leukemia
MCF7 breast = system: MCF7 breast
CAKI-1 renal = system: CAKI-1 renal
PC-3 prostate = system: PC-3 prostate
SK-MEL-2 melanoma = system: SK-MEL-2 melanoma

## C/C(=C\COP(=O)(O)OP(=O)(O)O)CCCCCCOCc1ccccc1
UACC-62 melanoma
  TGI: > 100 µM
IGROV1 ovarian
  TGI: > 100 µM
HOP-92 NSCLC
  TGI: > 100 µM
NCI-H522 lung
  TGI: > 100 µM
HS 578T breast
  TGI: > 100 µM
UACC-257 melanoma
  TGI: > 100 µM
BT-549 breast
  TGI: > 100 µM
MALME-3M melanoma
  TGI: > 100 µM
EKVX NSCLC
  TGI: > 100 µM
SNB-75 CNS
  TGI: > 100 µM
CCRF-CEM leukemia
  TGI: > 100 µM
SK-OV-3 ovarian
  TGI: > 100 µM
OVCAR-5 ovarian
  TGI: > 100 µM
SW-620 colon
  TGI: > 100 µM
SN12C renal
  TGI: > 100 µM
KM12 colon
  TGI: > 100 µM
MOLT-4 leukemia
  TGI: > 100 µM
A549 NSCLC
  TGI: > 100 µM
SK-MEL-28 melanoma
  TGI: > 100 µM
COLO 205 colon
  TGI: > 100 µM
RXF 393 renal
  TGI: > 100 µM
UO-31 renal
  TGI: > 100 µM
HCC-2998 colon
  TGI: > 100 µM
HCT-116 colon
  TGI: > 100 µM
NCI-H226 lung
  TGI: > 100 µM
DU-145 prostate
  TGI: > 100 µM
M14 melanoma
  TGI: > 100 µM
MDA-MB-231 breast
  TGI: > 100 µM
NCI/ADR-RES ovarian
  TGI: > 100 µM
NCI-H23 lung
  TGI: > 100 µM
LOX IMVI melanoma
  TGI: > 100 µM
OVCAR-3 ovarian
  TGI: > 100 µM
U251 CNS
  TGI: > 100 µM
HOP-62 NSCLC
  TGI: > 100 µM
OVCAR-8 ovarian
  TGI: > 100 µM
OVCAR-4 ovarian
  TGI: > 100 µM
T-47D breast
  TGI: > 100 µM
ACHN renal
  TGI: > 100 µM
SF-295 CNS
  TGI: > 100 µM
TK-10 renal
  TGI: > 100 µM
HT29 colon
  TGI: > 100 µM
K-562 leukemia
  TGI: > 100 µM
SK-MEL-5 melanoma
  TGI: > 100 µM
786-0 renal
  TGI: > 100 µM
SF-268 CNS
  TGI: > 100 µM
SNB-19 CNS
  TGI: > 100 µM
A498 renal
  TGI: > 100 µM
RPMI-8226 leukemia
  TGI: > 100 µM
SF-539 CNS
  TGI: > 100 µM
HCT-15 colon
  TGI: > 100 µM
NCI-H460 lung
  TGI: > 100 µM
MDA-MB-435
  TGI: > 100 µM
SR leukemia
  TGI: > 100 µM
HL-60(TB) leukemia
  TGI: > 100 µM
MCF7 breast
  TGI: > 100 µM
CAKI-1 renal
  TGI: > 100 µM

## Oc1ccc2c(=S)cc(-c3ccc(Br)cc3)oc2c1O
UACC-62 melanoma
  GI50: 2.09 µM
  TGI: 4.85 µM
IGROV1 ovarian
  GI50: 2.56 µM
  TGI: 9.96 µM
HOP-92 NSCLC
  GI50: 1.69 µM
  TGI: 6.11 µM
NCI-H522 lung
  GI50: 1.16 µM
  TGI: 3.88 µM
HS 578T breast
  GI50: 6.69 µM
  TGI: > 100 µM
UACC-257 melanoma
  GI50: 2.88 µM
  TGI: 8.25 µM
BT-549 breast
  GI50: 2.19 µM
  TGI: 14.6 µM
MALME-3M melanoma
  GI50: 1.87 µM
  TGI: 6.06 µM
EKVX NSCLC
  GI50: 17.9 µM
  TGI: 56.6 µM
SNB-75 CNS
  GI50: 4.56 µM
  TGI: > 100 µM
CCRF-CEM leukemia
  GI50: 2.53 µM
  TGI: 8.03 µM
SK-OV-3 ovarian
  GI50: 2.6 µM
  TGI: 8.5 µM
OVCAR-5 ovarian
  GI50: 5.83 µM
  TGI: 78 µM
SW-620 colon
  GI50: 2.6 µM
  TGI: 21.6 µM
SN12C renal
  GI50: 2.61 µM
  TGI: 12.3 µM
KM12 colon
  GI50: 3.35 µM
  TGI: 25.6 µM
MOLT-4 leukemia
  GI50: 2.16 µM
  TGI: 6.77 µM
A549 NSCLC
  GI50: 3.26 µM
SK-MEL-28 melanoma
  GI50: 2.94 µM
  TGI: 28.7 µM
COLO 205 colon
  GI50: 10.7 µM
  TGI: 24.5 µM
RXF 393 renal
  GI50: 2.51 µM
  TGI: 8.78 µM
UO-31 renal
  GI50: 1.02 µM
  TGI: 6.66 µM
PC-3 prostate
  GI50: 2.92 µM
  TGI: 17.1 µM
HCC-2998 colon
  GI50: 2.28 µM
  TGI: 7.03 µM
HCT-116 colon
  GI50: 2.22 µM
  TGI: 9.73 µM
NCI-H226 lung
  GI50: 7.22 µM
  TGI: 39.4 µM
DU-145 prostate
  GI50: 2.67 µM
  TGI: > 100 µM
M14 melanoma
  GI50: 2.01 µM
  TGI: 6.56 µM
MDA-MB-231 breast
  GI50: 1.81 µM
  TGI: 8.4 µM
NCI/ADR-RES ovarian
  GI50: 1.43 µM
  TGI: 6.05 µM
NCI-H23 lung
  GI50: 1.52 µM
  TGI: 6.38 µM
SK-MEL-2 melanoma
  GI50: 2.27 µM
  TGI: 6.76 µM
LOX IMVI melanoma
  GI50: 1.18 µM
  TGI: 3.87 µM
U251 CNS
  GI50: 2.44 µM
  TGI: 8.93 µM
HOP-62 NSCLC
  GI50: 1.5 µM
  TGI: 6.73 µM
OVCAR-8 ovarian
  GI50: 2.28 µM
  TGI: 8.92 µM
OVCAR-4 ovarian
  GI50: 2.03 µM
  TGI: > 100 µM
T-47D breast
  GI50: 1.27 µM
  TGI: 5.15 µM
ACHN renal
  GI50: 2.35 µM
  TGI: 11.8 µM
SF-295 CNS
  GI50: 4.01 µM
  TGI: 29.8 µM
TK-10 renal
  GI50: 4.16 µM
  TGI: 14.7 µM
HT29 colon
  GI50: 4.56 µM
  TGI: 25.9 µM
K-562 leukemia
  GI50: 2.47 µM
  TGI: > 100 µM
SK-MEL-5 melanoma
  GI50: 1.79 µM
  TGI: 3.95 µM
786-0 renal
  GI50: 2.89 µM
  TGI: 11.1 µM
SF-268 CNS
  GI50: 2.18 µM
  TGI: > 100 µM
SNB-19 CNS
  GI50: 2.95 µM
  TGI: > 100 µM
A498 renal
  GI50: 2.15 µM
  TGI: 7.46 µM
RPMI-8226 leukemia
  GI50: 1.32 µM
  TGI: 18.3 µM
SF-539 CNS
  GI50: 1.98 µM
  TGI: 7.28 µM
HCT-15 colon
  GI50: 0.853 µM
  TGI: 12.1 µM
NCI-H460 lung
  GI50: 0.973 µM
  TGI: 19 µM
MDA-MB-435
  GI50: 2.98 µM
  TGI: > 100 µM
SR leukemia
  GI50: 2.54 µM
  TGI: 38.1 µM
HL-60(TB) leukemia
  GI50: 1.66 µM
  TGI: 6.24 µM
CAKI-1 renal
  GI50: 2.65 µM
  TGI: 15.5 µM
